System: aortic rings of ovariectomized rats
Assay: Basal NO release in isolated aortic rings of treated ovariectomized rats (phenylephrine curves before and after L-NAME)
Format: in vivo, Sprage-Dawley rats
Details: for response of vessels to L-NAME after washout: 1 mg/kg/day by gastric gavage, 200 μM L-NAME, vehicle treated group had a significantly smaller response; for response of the vessels compared among intact, estradiol and TSE-424 treated groups / difference from vehicle treated group (basal NO release, separation of curves before and after L-NAME): 1 mg/kg/day; for response of the vessels compared among intact, estradiol and TSE-424 treated groups: all phenylephrine concentrations (except 0.01 μM phenylephrine TSE-424 treated group); for difference from vehicle treated group (basal NO release, separation of curves before and after L-NAME): at the 10 and 100 μM phenylephrine concentrations, p<0.05
Experimental: Sprage-Dawley rats (240-260 grams) were divided into 4 groups: (1) Normal non-ovariectomized (intact); (2) Ovariectomized (ovex) vehicle treated; (3) Ovariectomized 17-β estradiol treated (1 mg/kg/day); and (4) Ovariectomized TSE-424 treated (1 mg/kg/day). All animals were ovariectomized approximately 3 weeks prior to treatment. Each received 1 mg/kg/day of either 17-β estradiol sulfate or TSE-424 suspended in distilled, deionized water with 1% tween-80 by gastric gavage. Vehicle treated animals received an appropriate volume of the vehicle used in the drug treated groups.
Animals were euthanized by CO2 inhalation and exsanguination. Their thoracic aortas were rapidly removed and placed in 37° C. physiological solution with the following composition (mM): NaCl (54.7), KCl (5.0), NaHCO3 (25.0), MgCl2.2H2O (2.5), D-glucose (11.8) and CaCl2 (0.2) gassed with […] for a final pH of 7.4. The advantitia was removed from the outer surface and the vessel was cut into 2-3 mm wide rings. Rings were suspended in at 10 mL tissue bath with one end attached to the bottom of the bath and the other to a force transducer. A resting tension of 1 gram was placed on the rings.
After equilibration, the rings were exposed to increasing concentrations of phenylephrine (10^−8 to 10^−4 M) and the tension recorded. Baths were then rinsed 3 times with fresh buffer. After washout, 200 μM N′-nitro-L-arginine methyl ester hydrochloride (L-NAME) was added to the tissue bath and equilibrated for 30 minutes. The phenylephrine concentration response curve was then repeated.
Contraction amplitudes at each concentration of phenylephrine were normalized to the maximum phenylephrine-induced contraction before the addition of L-NAME and graphed. The amount of basal NO released was proportional to the degree of separation between the 2 curves before and after L-NAME. Statistical differences were at the p<0.05 level of significance using a repeated measures “Test of Effect Slices (SAS)” analysis of variance.

| Compound | response of vessels to L-NAME after washout | response of the vessels compared among intact, estradiol and TSE-424 treated groups | difference from vehicle treated group (basal NO release, separation of curves before and after L-NAME) |
| --- | --- | --- | --- |
| Cc1c(-c2ccc(O)cc2)n(Cc2ccc(OCCN3CCCCCC3)cc2)c2ccc(O)cc12 [TSE-424, 1-[4-(2-Azepan-1yl-ethoxy)-benzyl]-2-(4-hydroxy-phenyl)-3-methyl-1H-indol-5-ol] | substantial contraction | indistinguishable | significantly different |
| C[C@]12CC[C@@H]3c4ccc(O)cc4CC[C@H]3[C@@H]1CC[C@@H]2O [estradiol, 17-β estradiol] | substantial contraction | indistinguishable | significantly different |

Source: patent US20020022617A1, “Methods for increasing nitric oxide synthase activity” (American Home Products Corporation, priority 2000, published 2002)
